Peptide text beside a SMILES is read from it.
Columns and labels:
HMLER = test: cells; assay type: cell-based, human; conditions: 72 h
Source text: (§1) […], and MCF-10A cells were maintained in MEGM with supplements and growth factors bovine pituitary extract, hydrocortisone, human epidermal growth factor, insulin, and gentamicin/amphotericin-B.

HMLER‐shEcad = test: cells; assay type: cell-based, human; conditions: 72 h
Source text: as §1

MCF‐10A = test: cells; assay type: cell-based, human; conditions: 72 h
Source text: as §1

U2OS = assay type: cell-based, human; conditions: 72 h
HEK293T = test: cells; assay type: cell-based, human; conditions: 72 h
[1] = Tryptophan fluorescent binding assay; conditions: tryptophan fluorescence; 50 µM peptide, lipid titrated 0-5000 µM; phosphate buffered saline 1X, pH 7.4; values as lipid per peptide
Description: 50 µM ACP peptides and varied concentrations (concentrations: 0, 25, 50, 100, 150, 200, 250, 500, 1250, and 2500 µM) of POPC or POPC:POPG (3:1 ratio) large unilamellar vesicles were prepared in 10 mM phosphate buffer (pH 7.0). The solutions were measured after 1 h of incubation. Excitation was fixed at 280 nm (slit 9 nm) and emission was collected from 300 to 450 nm (slit 9 nm). The spectra were recorded using Cytation 5 Cell Imaging Multi‐Mode Reader from BioTek and were averaged by three scans.
Lipid Concentration-induced
Name Sequence† 50% Peptide Binding (L/P)
Extended Data Table 3 | Tryptophan binding assay. […]
peptide binding onto liposome. 50 µM peptides were fixed and incubated with titrated lipid (POPC vesicle […]
phosphate buffered saline (1X, pH 7.4). The lipid concentration that causes 50 % peptide binding was determined using tryptophan fluorescent binding assay and the values are shown as lipid per peptide.

[2] = ANTS/DPX liposome leakage assay; conditions: for Peptide Concentration-induced 50 % ANTS/DPX leakage at pH 4.8 (L/P), 3POPC/1POPG Vesicle / Peptide Concentration-induced 50 % ANTS/DPX leakage at pH 4.8 (L/P), POPC Vesicle / Peptide Concentration-induced 50 % ANTS/DPX leakage at pH 7.4 (L/P), 3POPC/1POPG Vesicle / Peptide Concentration-induced 50 % ANTS/DPX leakage at pH 7.4 (L/P), POPC Vesicle: 0.5 mM vesicles, peptide 0-20 µM, 3 h incubation, lipid per peptide; for Peptide Concentration-induced 50 % ANTS/DPX leakage at pH 4.8 (L/P), 3POPC/1POPG Vesicle / Peptide Concentration-induced 50 % ANTS/DPX leakage at pH 4.8 (L/P), POPC Vesicle: HCl-adjusted PBS 1X pH 4.8; for Peptide Concentration-induced 50 % ANTS/DPX leakage at pH 7.4 (L/P), 3POPC/1POPG Vesicle / Peptide Concentration-induced 50 % ANTS/DPX leakage at pH 7.4 (L/P), POPC Vesicle: PBS 1X pH 7.4, high ratio = more potent
Description: Vesicle preparation: 5 mM ANTS and 12.5 mM DPX were entrapped in 0.1 µm diameter extruded vesicles (either POPC or POPC/POPG at a ratio of 3:1) with lipids. Gel filtration chromatography of Sephadex G‐100 was used to remove external free ANTS/DPX from LUVs with entrapped contents. LUVs were diluted to 0.5 mM and used to measure the leakage activity by the addition of aliquots of ACPs. Leakage was measured after 3 h incubation. 10% Triton was used as the positive control to measure the maximum leakage of the vesicle. Fluorescence emission spectra were recorded using excitation and emission wavelength of 350 and 510 nm for ANTS/DPX using a BioTek Synergy H1 Hybrid Multi‐Mode Reader.
Peptide Concentration-induced Peptide Concentration-induced
Name Sequence† 50 % ANTS/DPX leakage 50 % ANTS/DPX leakage at pH 7.4 (L/P) at pH 4.8 (L/P)
POPC Vesicle 3POPC/1POPG Vesicle POPC Vesicle 3POPC/1POPG Vesicle […]
Extended Data Table 4 | Peptide concentration-induced 50 % ANTS/DPX liposome leakage. 0.5 mM POPC and 3POPC/1POPG vesicles were fixed and incubated with titrated peptide concentration (0, 0.02, […]
hydrochloric acid-adjusted phoshate buffered saline (1X, pH 4.8). The values are shown as lipid per

SMILES	IC50 (HMLER) [µM]	IC50 (HMLER‐shEcad) [µM]	IC50 (MCF‐10A) [µM]	IC50 (U2OS) [µM]	IC50 (HEK293T) [µM]	Lipid Concentration-induced 50% Peptide Binding (L/P), 3POPC/1POPG Vesicle [1] [L/P]	Lipid Concentration-induced 50% Peptide Binding (L/P), POPC Vesicle [1] [L/P]	Peptide Concentration-induced 50 % ANTS/DPX leakage at pH 4.8 (L/P), 3POPC/1POPG Vesicle [2] [L/P]	Peptide Concentration-induced 50 % ANTS/DPX leakage at pH 4.8 (L/P), POPC Vesicle [2] [L/P]	Peptide Concentration-induced 50 % ANTS/DPX leakage at pH 7.4 (L/P), 3POPC/1POPG Vesicle [2] [L/P]	Peptide Concentration-induced 50 % ANTS/DPX leakage at pH 7.4 (L/P), POPC Vesicle [2] [L/P]	change of ANTS/DPX dye leakage / liposome selectivity at pH 4.8 ([2]; pH = 4.8 compared with physiological pH, anionic versus neutral liposomes)
CC(C)C[C@H](NC(=O)CN)C(=O)N[C@@H](CC(C)C)C(=O)N[C@@H](CCC(=O)O)C(=O)N[C@@H](CC(C)C)C(=O)N[C@@H](CC(C)C)C(=O)N[C@@H](Cc1c[nH]cn1)C(=O)N[C@@H](CC(C)C)C(=O)N[C@@H](CC(C)C)C(=O)N[C@@H](CC(C)C)C(=O)N[C@@H](Cc1c[nH]cn1)C(=O)N[C@@H](C)C(=O)N[C@@H](C)C(=O)NCC(=O)N[C@@H](Cc1c[nH]c2ccccc12)C(N)=O [EHH] (H-GLLELLHLLLHAAGW-NH2)	25.4 ± 2.76	16.1 ± 3.18	150 ± 71	117 ± 7	5.9 ± 0.14	0.69	0.94	80	386	981	1043	increased selectivity for neutral bilayers
CC(C)C[C@H](NC(=O)CN)C(=O)N[C@@H](CC(C)C)C(=O)N[C@@H](CCC(=O)O)C(=O)N[C@@H](CC(C)C)C(=O)N[C@@H](CC(C)C)C(=O)N[C@@H](CCCCN)C(=O)N[C@@H](CC(C)C)C(=O)N[C@@H](CC(C)C)C(=O)N[C@@H](CC(C)C)C(=O)N[C@@H](Cc1c[nH]cn1)C(=O)N[C@@H](C)C(=O)N[C@@H](C)C(=O)NCC(=O)N[C@@H](Cc1c[nH]c2ccccc12)C(N)=O [EKH] (H-GLLELLKLLLHAAGW-NH2)	2.75 ± 0.07	2.18 ± 0.31	7.9 ± 0.42	23.8 ± 0.81	6.65 ± 1.34	0.19	0.75	88	55	365	608	–
CC(C)C[C@H](NC(=O)CN)C(=O)N[C@@H](CC(C)C)C(=O)N[C@@H](CCCCN)C(=O)N[C@@H](CC(C)C)C(=O)N[C@@H](CC(C)C)C(=O)N[C@@H](Cc1c[nH]cn1)C(=O)N[C@@H](CC(C)C)C(=O)N[C@@H](CC(C)C)C(=O)N[C@@H](CC(C)C)C(=O)N[C@@H](CCCCN)C(=O)N[C@@H](C)C(=O)N[C@@H](C)C(=O)NCC(=O)N[C@@H](Cc1c[nH]c2ccccc12)C(N)=O [KHK] (H-GLLKLLHLLLKAAGW-NH2)	2.59 ± 0.92	1.4 ± 0.14	1.81 ± 0.05	12.9 ± 1.24	3.55 ± 0.78	0.38	0.17	53	140	193	1153	–
CC(C)C[C@H](NC(=O)CN)C(=O)N[C@@H](CC(C)C)C(=O)N[C@@H](Cc1c[nH]cn1)C(=O)N[C@@H](CC(C)C)C(=O)N[C@@H](CC(C)C)C(=O)N[C@@H](CCCCN)C(=O)N[C@@H](CC(C)C)C(=O)N[C@@H](CC(C)C)C(=O)N[C@@H](CC(C)C)C(=O)N[C@@H](CCC(=O)O)C(=O)N[C@@H](C)C(=O)N[C@@H](C)C(=O)NCC(=O)N[C@@H](Cc1c[nH]c2ccccc12)C(N)=O [HKE] (H-GLLHLLKLLLEAAGW-NH2)	2.7 ± 0.28	1.9 ± 0.42	7.6 ± 0.42	16 ± 0.78	5.15 ± 0.64	0.25	0.75	94	173	365	692	–
